The results in this text go back to US11358953B2, “Functionalized peptides as antiviral agents” (ENANTA PHARMACEUTICALS, INC., priority 2020, dated 2022).

The target of this assay is SARS-CoV-2 3CL-protease (Severe acute respiratory syndrome coronavirus 2 (2019-nCoV) (SARS-CoV-2), UniProt P0DTD1). Briefly: SARS-CoV-2 3C-like (3CL) protease fluorescence assay (FRET). Format: biochemical. As to conditions: recombinant SARS-CoV-2 3CL-protease 10 nM, 30 min preincubation at RT, substrate 40 μM, duplicate.

As to `CCC(=O)N[C@H](C(=O)N1C[C@H]2[C@@H]([C@H]1C(=O)N[C@H](C#N)C[C@@H]1CCNC1=O)C2(C)C)C(C)(C)C` [Ex26, (1R,2S,5S)—N—((S)-1-cyano-2-((S)-2-oxopyrrolidin-3-yl)ethyl)-3-((S)-3,3-dimethyl-2-propionamidobutanoyl)-6,6-dimethyl-3-azabicyclo[3.1.0]hexane-2-carboxamide], the IC50 is less than 100 nM.
As for `O=C(NC1CCCCC1)C(=O)[C@H](C[C@@H]1CCNC1=O)NC(=O)[C@@H]1[C@H]2CCC[C@H]2CN1C(=O)c1cc2c(OC(F)F)cccc2[nH]1` [Ex8, (1S,3aR,6aS)—N—((S)-4-(cyclohexylamino)-3,4-dioxo-1-((S)-2-oxopyrrolidin-3-yl)butan-2-yl)-2-(4-(difluoromethoxy)-1H-indole-2-carbonyl)octahydrocyclopenta[c]pyrrole-1-carboxamide], the IC50 was less than 100 nM.
Regarding `COc1cccc2[nH]c(C(=O)N3C[C@@H]4CCC[C@@H]4[C@H]3C(=O)N[C@@H](C[C@@H]3CCNC3=O)C(=O)CO)cc12` [Ex10, (1S,3aR,6aS)—N—((S)-4-hydroxy-3-oxo-1-((S)-2-oxopyrrolidin-3-yl)butan-2-yl)-2-(4-methoxy-1H-indole-2-carbonyl)octahydrocyclopenta[c]pyrrole-1-carboxamide], the IC50 is 100 to 1000 nM.
Turning to `O=C[C@H](C[C@@H]1CCNC1=O)NC(=O)[C@@H]1[C@H]2CCC[C@H]2CN1C(=O)c1cc2c(OC(F)F)cccc2[nH]1` [Ex5, (1S,3aR,6aS)-2-(4-(difluoromethoxy)-1H-indole-2-carbonyl)-N—((S)-1-oxo-3-((S)-2-oxopyrrolidin-3-yl)propan-2-yl)octahydrocyclopenta[c]pyrrole-1-carboxamide], the IC50 is less than 100 nM.
